Laboratory results published in patent US12516295B2, “Generation of pancreatic progenitor cells and beta cells from human pluripotent stem cells” (The Penn State Research Foundation, priority 2018, dated 2026).

What was measured:
H1 hESCs = assay: Growth-factor-free differentiation of hPSCs to SOX17+ DE cells, SOX17 expression by flow cytometry; format: cell-based, human; settings: for effect on DE differentiation (result in words): H1 hESCs differentiated with CH, CH+DM or CH+A83-01, day 4 SOX17 by flow cytometry (FIG. 1F); for percentage of cells expressing SOX17: flow cytometry (FIG. 1C); for SOX17+ cells: H1 hESCs, dynamics (FIG. 1E; CH in presence or absence of DM)
Experimental: (§1) FIG. 1. Growth-factor-free differentiation of SOX17+ DE cells from hPSCs via CH and DM treatment. (A) Human 19-9-11 iPSCs were treated with 6 μM CH at day 0. After treatment, cells were collected from 3 to 21 hours (T) and RNA-seq was performed. The bars for each set from left to right are: T0, T3, T6, T9, T12, T15, T18, T21. (B) Schematic of protocol for defined, growth-factor-free differentiation of hPSCs to SOX17+ cells via treatment with CH and DM. (C-D) H1 hESCs were cultured as indicated in 2B with 1 μM DM plus different CH concentration, ranging from 2 to 10 μM. (C) On day 4 of differentiation, cells were analyzed for SOX17 expression by flow cytometry. (D) Cells were immunostained with a SOX17 antibody on day 4 of differentiation under 6 μM CH plus 1 μM DM treatment. (E) H1 hESCs were differentiated with CH in the presence or absence of DM. From day 1 to day 4, cells were analyzed for SOX17 expression by flow cytometry. (F) H1 hESCs were differentiated with CH, CH plus DM or CH plus A83-01. On day 4 of differentiation, cells were analyzed for SOX17 expression by flow cytometry.
Stage 1: On day 0, medium was changed with RPMI supplemented with 1 μM Dorsomorphin (DM) and 2-10 μM CHIR99021(CH). At day 1-4, medium was changed with RPMI supplemented with B-27 without insulin.
Cells were dissociated into single cells with Accutase for 10 min and then fixed with 1% paraformaldehyde for 30 min at room temperature and stained with primary and secondary antibodies in PBS plus 0.1% Triton X-100 and 0.5% BSA. Data were collected on a BD ACCURI C6 PLUS flow cytometer (BD Biosciences) and analyzed using FlowJo 10. FACS gating was based on the corresponding isotype antibody control.
Here we describe a differentiation protocol without using any growth factors. We first initiated DE differentiation by treating hPSCs with CH+DM. To determine optimal CH concentration for DE differentiation, H1 cells were treated by 2 to 10 μM CH in RPMI for 24 hours, followed by 3 days culture in RPMI with 2% B-27 minus insulin supplement. We analyzed the percentage of SOX17+ cells on day 4 of differentiation via flow cytometry. […] The optimal DE differentiation was achieved when hPSCs were treated by 4 or 6 μM CH (FIG. 1C). On day 4, 85% of cells expressing SOX17 when cells were treated with 6 μM CH plus 1 μM DM, whereas the percentage of cells expressing SOX17 decreased to 20% when treated with 10 μM CH plus 1 μM DM (FIG. 1C). […] Next, the dynamics of DE differentiation was investigated by analyzing SOX17 expression from day 1 to day 4. During differentiation, SOX17+ cells increased from 0% on day 1 to 78% on day 4, indicating DE was gradually developed (FIG. 1E). Furthermore, to evaluate whether our novel DE differentiation protocol depends on endogenous TGFbeta pathway, we differentiated H1 hESCs with CH, CH+DM, and CH+A83-01 (a TGFbeta inhibitor).

19-9-11 iPSCs = assay: RNA-seq expression profile during CH induced differentiation; format: cell-based, human; settings: 6 μM CH
Experimental: as §1
To understand RNA expression profile during CH induced differentiation, we collected cells following CH treatment every three hours for a total of eight different time points after differentiation (FIG. 1A).

SMILES	effect on DE differentiation (result in words) (H1 hESCs)	Sox17+ cells generated (H1 hESCs; 10 μM CH treatment (discussion))	Sox17+ cells generated (H1 hESCs; 4 or 6 μM CH treatment (discussion))	DE differentiation (result in words) (H1 hESCs; H1 cells, 2 to 10 μM CH in RPMI for 24 hours, SOX17+ cells on day 4)	percentage of cells expressing SOX17 (H1 hESCs; H1 cells, day 4, 6 μM CH plus 1 μM DM)	percentage of cells expressing SOX17 (H1 hESCs; H1 cells, day 4, 10 μM CH plus 1 μM DM)	SOX17+ cells (H1 hESCs; day 1 of differentiation)	SOX17+ cells (H1 hESCs; day 4 of differentiation)	Nodal expression (19-9-11 iPSCs; 21 hours after treatment, RNA-seq)	RNA expression of several components in the TGF-β signaling pathway (19-9-11 iPSCs; samples every three hours over 21 hours, RNA-seq (FIG. 1A))
Cc1cccc(-c2nn(C(=S)Nc3ccccc3)cc2-c2ccnc3ccccc23)n1 [A83-01]	abolished DE differentiation									
Cc1cnc(-c2cnc(NCCNc3ccc(C#N)cn3)nc2-c2ccc(Cl)cc2Cl)[nH]1 [CH, 6-[[2-[[4-(2,4-Dichlorophenyl)-5-(5-methyl-1H-imidazol-2-yl)-2-pyrimidinyl]amino]ethyl]amino]-3-pyridinecarbonitrile]		6%	more than 74%	induced DE differentiation in a dose-dependent manner	85%	20%	0%	78%	upregulated	increased
c1cc(-c2cnn3cc(-c4ccc(OCCN5CCCCC5)cc4)cnc23)ccn1 [DM, 6-[4-(2-Piperidin-1-ylethoxy)phenyl]-3-pyridin-4-ylpyrazolo[1,5-a]pyrimidine]	promoted this differentiation									
